Patent US20230055441A1 (NONO INC., priority 2020, published 2023)
“Also recorded” adds a separate entry of the source. Square brackets hold non-standard residues; d marks the D form. Ends that are not written are not given here. Peptide text beside a SMILES is read from it.

Assays:
PSD95PDZ2 [1] = biological target: T1, PSD95PDZ2 (Homo sapiens, UniProt P78352); assay: Competitive ELISA with biotinylated-NA-1 on coated PSD95PDZ2; type: binding
Description: Binding was evaluated with a competitive ELISA assay. A plate was coated with 1 ug/ml PSD95PDZ2 in 50 mM bicarbonate buffer overnight at 4C. The plate was blocked in 2% BSA in PBST (0.05%) for 2 h at room temperature. […] The wells were washed again, and then incubated with TMB solution for 10 min. The reaction was stopped with 100 ul H2SO4. Absorbance was determined at 450 nm with the synergy H1 reader.
Target sequence in this assay (P78352 160-246 limits assumed): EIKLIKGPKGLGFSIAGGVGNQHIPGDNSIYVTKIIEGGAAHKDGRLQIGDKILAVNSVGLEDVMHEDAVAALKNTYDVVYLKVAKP

[2] = Pharmacokinetic analysis in rats by route (subcutaneous, pulmonary instillation, intramuscular, intravenous); details: rat; for Cmax / plasma concentration, pulmonary instillation / plasma exposure, pulmonary instillation / AUC / plasma exposure, subcutaneous / Cmax, subcutaneous: 25 mg/kg (Table 4); for plasma exposure, pulmonary instillation: versus intrapulmonary NA-1; for AUC / plasma exposure, subcutaneous / Cmax, subcutaneous: NA-1 versus IV NA-1, others versus subcutaneous NA-1
Description: Rats were anaesthetized in the supine position (Isoflurane 1.5-%) and allowed to breath spontaneously in 0.5 L/min 02. The left femoral artery was cannulated for blood sampling.
Test agents were prepared at the stablish concentration in a total volume of vehicle. Pulmonary instillation was performed by intubation with a 14G catheter connected to a 1 cc syringe and the test agent will be delivered through the catheter. Subcutaneous (SQ or SC) injection was injected into the area of the left flank, no more than 2 ml of total volume per site.
Each dose was evaluated in 3 rats for each administration strategy. […] For the first experiment, evaluating two different administration routes (SQ and PI), blood samples were collected at 8 different timepoints: Pre and at 7 additional times (1, 2.5, 5, 10, 15, 30, 60 min) post dose (250 ul/sample). For the 24-hour PK curve experiment, blood samples were collected at 11 timepoints: Pre, 2.5, 5, 10, 15, 30, 60 min, 3 hr, 6 hr, 12 hr and 24 hr.
HPLC quantification: Plasma was separated from blood and stored at −80° C. until used. Each sample was precipitated by adding 1M HCl (10 ul/100 ul sample) at >80° C., centrifuged (12,000 rpm×15 min) and the precipitate collected. A 5 cm C—18 RP-HPLC column was equilibrated with 10% acetonitrile with 0.1% TFA at 40° C., the sample was injected and run in an Agilent 1260 Infinity Quaternary LC System. (30 min at 1.5 mL/min; gradient from 10% to 35% acetonitrile in 0.1% TFA; Absorbance detected at 220 nm). Standard curves for HPLC were generated from plasma samples spiked with known quantities of test agent.

[3] = Plasma concentrations 15 minutes after subcutaneous dose in rats of the 3-pial vessel occlusion study; type: in vivo; details: rat
Description: Unlike transient models of stroke in rats where much lower doses are required for neuroprotection, neuroprotection in 3 pial vessel occlusion models of stroke seems to require plasma concentrations of nerinetide at or above 2 ug/mL (or molar equivalent). […] Although the plasma levels continue to increase through about 3 hours then decrease, it is important to achieve rapid accumulation in the blood and brain for emergency indications like stroke. […] For pharmacokinetic sample analysis, calibration standard samples at concentrations of 0, 2.5, 5, 10, 15, 20 and 40 ug/mL of nerinetide were prepared by spiking 1 μL of the appropriate stock to 100 μL of plasma. […] Data is presented as mean±SD.

[4] = Pharmacokinetics after subcutaneous injection in non-human primates; type: in vivo, cynomolgus macaques; details: for plasma concentrations: cynomolgus macaques
From the text: All values are presented as mean±SD; Statistical significance when compared to nerinetide alone is indicated as * (one-way ANOVA with post-hoc turkey's correction, *P<0.01). (Cmax: maximum plasma concentrations based on the extrapolated time-zero value; t1/2: half-life at terminal phase; tmax: time to reach Cmax; AUC0-t: area under the concentration-time curve from 0 to the last measured value; AUC0-inf: extrapolated area under the concentration-time curve from 0 to infinity; Cl: total clearance). Data is presented as mean±SD of three-four animals per group. The (−) represent data not reported due to an extrapolation of the AUC0-inf greater than 20% and R^2 lower than 0.9.

histamine = assay: Histamine release in rat plasma (histamine ELISA)
Description: Blood samples were collected at 11 timepoints: Pre, 2.5, 5, 10, 15, 30, 60 min, 3 hr, 6 hr, 12 hr and 24 hr. Histamine levels were quantified by using commercially available histamine ELISA assay kit (Histamine ELISA-H1531-K01, Eagle Bioscience). The plates were coated with the plasma samples (50 ul/well) incubated for 60 minutes at room temperature on an orbital shaker with medium frequency. Then 100 ul of enzyme conjugate was added to the wells and incubated for 20 minutes at room temperature. Samples were washed again, and then incubated for 25 minutes at room temperature with TMB solution. The reaction was stopped with 100 ul H2SO4. Absorbance was determined on an ELISA plate reader at 450 nm.
Blood samples were taken at pre-injection and at 0, 1, 2.5, 5, 10, 15, 30- and 60-minutes post dose and used for histamine levels quantification using commercially available kit.

PSD95PDZ2 [5] = biological target: T1, PSD95PDZ2; assay: competitive ELISA, PSD95PDZ2 coated, competitor biotinylated NA-1
Target sequence in this assay (P78352 160-246 limits assumed): as above

PSD95PDZ2 [6] = biological target: T1, PSD95PDZ2; assay: direct ELISA; biotinylated peptide
Target sequence in this assay (P78352 160-246): as the sequence (P78352 160-246 limits assumed) above

PSD95PDZ2 [7] = biological target: T1, PSD95PDZ2; assay: direct ELISA; biotinylated peptide; unit printed "um"
Target sequence in this assay (P78352 160-246): as the sequence (P78352 160-246 limits assumed) above

plasmin = assay: digested with plasmin
tPA = tPA in PBS buffer (no plasma)
TNK = TNK in phosphate buffered saline alone
[8] = system: TNK-tissue plasminogen activator; assay: rat plasma with TNK
[9] = system: TNK-tissue plasminogen activator; assay: human plasma with TNK
[10] = subcutaneous 25 mg/kg versus nerinetide IV infusion
[11] = listed as D-Tat-L-IESDV, 25 mg/kg
[12] = subcutaneous 25, 8.3, 2.8 mg/kg

Question: Which results are given for `CC[C@@H](C)[C@@H](NC(=O)[C@@H](CO)NC(=O)[C@@H](CO)NC(=O)[C@@H](CC(C)C)NC(=O)[C@@H](CCCCN)NC(=O)[C@@H](CCCNC(=N)N)NC(=O)[C@@H](CCCNC(=N)N)NC(=O)[C@@H](CCCNC(=N)N)NC(=O)[C@@H](CCC(N)=O)NC(=O)[C@@H](CCCNC(=N)N)NC(=O)[C@@H](CCCNC(=N)N)NC(=O)[C@@H](CCCCN)NC(=O)[C@@H](CCCCN)NC(=O)[C@@H](CCCNC(=N)N)NC(=O)CNC(=O)[C@H](N)Cc1ccc(O)cc1)C(=O)N[C@H](CCC(=O)O)C(=O)N[C@H](CO)C(=O)N[C@H](CC(=O)O)C(=O)N[C@@H](C(=O)O)C(C)C` [D-NA-1, ygrkkrrqrrrklssiesdv] (H-[dY]G[dR][dK][dK][dR][dR][dQ][dR][dR][dR][dK][dL][dS][dS][dI][dE][dS][dD][dV]-OH)?
Answer: EC50 compared among NA-1, D-Tat-L-2B9C and D-NA-1 (PSD95PDZ2 [1]; FIG. 12): about ten-fold lower; Cmax / plasma concentration, pulmonary instillation [2]: higher plasma concentration; plasma exposure, pulmonary instillation [2]: greater plasma exposure; AUC / plasma exposure, subcutaneous [2]: also increased Cmax and AUC relative to subcutaneous NA-1 but not to the same extent; Cmax, subcutaneous [2]: also increased Cmax and AUC relative to subcutaneous NA-1 but not to the same extent

Question: For `CC[C@H](C)[C@H](NC(=O)[C@@H](CO)NC(=O)[C@@H](CO)NC(=O)[C@@H](CC(C)C)NC(=O)[C@@H](CCCCN)NC(=O)[C@@H](CCCNC(=N)N)NC(=O)[C@@H](CCCNC(=N)N)NC(=O)[C@@H](CCCNC(=N)N)NC(=O)[C@@H](CCC(N)=O)NC(=O)[C@@H](CCCNC(=N)N)NC(=O)[C@@H](CCCNC(=N)N)NC(=O)[C@@H](CCCCN)NC(=O)[C@@H](CCCCN)NC(=O)[C@@H](CCCNC(=N)N)NC(=O)CNC(=O)[C@H](N)Cc1ccc(O)cc1)C(=O)N[C@@H](CCC(=O)O)C(=O)N[C@@H](CO)C(=O)N[C@@H](CC(=O)O)C(=O)N[C@H](C(=O)O)C(C)C` [NA-3, ygrkkrrqrrrklsslESDV] (H-[dY]G[dR][dK][dK][dR][dR][dQ][dR][dR][dR][dK][dL][dS][dS]IESDV-OH), which IC50 (PSD95PDZ2 [1]) is on record?
Answer: < 5 µM

Question: And the “dose proportionality between treatment dose and Cmax” value ([3]; single subcutaneous administration 25, 7.6, 2.5 mg/kg)?
Answer: dose proportionality

Question: And the stability in plasma ([3]; subcutaneous, compared to nerinetide)?
Answer: higher stability in plasma

Question: And the “plasma concentration at 15 min post-dose” value ([3]; subcutaneous, compared to nerinetide at the same dose)?
Answer: higher concentration at 15 min post-dose

Question: What about the plasma concentrations ([4]; 7.6 mg/Kg subcutaneous) of the same compound?
Answer: able to achieve plasma concentrations higher than those demonstrated to be effective in humans

Question: And the plasma concentrations ([4]; 25 mg/kg subcutaneous)?
Answer: able to achieve plasma concentrations higher than those demonstrated to be effective in humans

Question: And the AUC [4, 10]?
Answer: greater Cmax and AUC than nerinetide IV infusion

Question: And the Cmax [4, 10]?
Answer: greater Cmax and AUC than nerinetide IV infusion

Question: What about the histamine release (histamine; 25 mg/kg SQ) of the same compound?
Answer: resulted in histamine release but still much less than 7.6 mg/kg IV

Question: What about the histamine release (histamine; subcutaneous 2.8 mg/kg) of the same compound?
Answer: Lack of significant histamine release

Question: And the histamine release (histamine; subcutaneous 2.8 mg/kg, listed as D-Tat-L-IESDV)?
Answer: did not result in significant histamine release

Question: What about the histamine release (histamine; subcutaneous 8.3 mg/kg) of the same compound?
Answer: Lack of significant histamine release

Question: And the histamine release (histamine; subcutaneous 8.3 mg/kg, listed as D-Tat-L-IESDV)?
Answer: did not result in significant histamine release

Question: What about the “plasma exposure, pulmonary instillation” value [2] of the same compound?
Answer: greater plasma exposure

Question: And the “Cmax / plasma concentration, pulmonary instillation” value ([2]; 25 mg/kg)?
Answer: higher plasma concentration

Question: And the “Cmax / plasma concentration, pulmonary instillation” value [2, 11]?
Answer: higher CMax than for NA-1 or D-Tat-L-2B9C

Question: And the “dose dependence of AUC, subcutaneous” value [2, 12]?
Answer: dose-dependent increasing linearly with dose

Question: And the “dose dependence of Cmax, subcutaneous” value [2, 12]?
Answer: dose-dependent increasing linearly with dose

Question: What about the “AUC / plasma exposure, subcutaneous” value ([2]; 25 mg/kg) of the same compound?
Answer: greater plasma exposure relative to SQ NA-1

Question: What about the “Cmax, subcutaneous” value ([2]; 25 mg/kg) of the same compound?
Answer: higher plasma concentration

Question: And the “AUC / plasma exposure, subcutaneous” value [2, 11]?
Answer: increased Cmax and AUC compared with subcutaneous NA-1

Question: What about the “Cmax, subcutaneous” value [2, 11] of the same compound?
Answer: increased Cmax and AUC compared with subcutaneous NA-1

Question: For D-NA-1 (peptide), which fold difference of EC50 against NA-1 and D-Tat-L-2B9C (PSD95PDZ2 [5]) is on record?
Answer: 10 fold

Question: Which EC50 (PSD95PDZ2 [6]) does the source give for D-NA-1 NA1 (Bio-D-NA1) here?
Answer: 1.38 µM

Question: With D-Tat-L-NA-1 (Bio-D-Tat-L-NA1) as the compound, how does the EC50 (PSD95PDZ2 [7]) read?
Answer: 0.139 µM

Question: Which results are given for YGRKKRRQRRRKLSSIESDV?
Answer: fragment found (plasmin): RRQRRRKLSSIESDV; also recorded: RQRRRKLSSIESDV; also recorded: QRRRKLSSIESDV; also recorded: RRKLSSIESDV; also recorded: RKLSSIESDV; also recorded: KLSSIESDV; also recorded: LSSIESDV; not cleaved (tPA): no degradation; not cleaved (TNK): not directly cleaved

Question: With “ygrkkrrqrrrKLSSIESDV ([dY]G[dR][dK][dK][dR][dR][dQ][dR][dR][dR]KLSSIESDV)” as the compound, how does the not cleaved (tPA) read?
Answer: no degradation

Question: And the not cleaved [8]?
Answer: stable

Question: And the not cleaved [9]?
Answer: stable
